Measurements: ChEMBL document CHEMBL3272004, “Dibenz[b,e]oxepinalkanoic acids as nonsteroidal antiinflammatory agents. 3. omega-(6,11-Dihydro-11-oxodibenz[b,e]oxepin-2-yl)alkanoic acids” (J Med Chem, 1977)
The source made the active and inactive calls. The calls are words filed in the database; no cut-off is given here.

System: Rattus norvegicus
Assay: Antiinflammatory activity in po dosed Wistar rat assessed as inhibition of carrageenan-induced paw edema administered 1 hr prior to carrageenan challenge measured after 3 hrs of carrageenan challenge
Format: functional
Conditions: not given

Row | Compound | ED50 [mg/kg] | inhibition
1 | O=C(O)CCCCCCCc1ccc2c(c1)C(=O)c1ccccc1CO2 | 11.7 | –
2 | O=C(O)CCCCCc1ccc(OCc2ccccc2C(=O)O)cc1 | – | inactive
3 | O=C(O)CCCc1ccc(OCc2ccccc2C(=O)O)cc1 | – | inactive
4 | O=C(O)Cc1ccc2c(c1)C(=O)c1ccccc1CO2 [ISOXEPAC] | 6.4 | –
5 | O=C(O)CCCCCCCc1ccc(OCc2ccccc2C(=O)O)cc1 | – | inactive
6 | O=C(O)CCCc1ccc2c(c1)C(=O)c1ccccc1CO2 | 10.1 | –
7 | COc1ccc2c(c1)c(CC(=O)O)c(C)n2C(=O)c1ccc(Cl)cc1 [INDOMETHACIN] | 4.4 | –
8 | O=C(O)CCCCCc1ccc2c(c1)C(=O)c1ccccc1CO2 | 18.2 | –
9 | O=C(O)CCc1ccc(OCc2ccccc2C(=O)O)cc1 | – | inactive

System: Rattus norvegicus
Assay: Induction of carrageenan-induced paw edema in Wistar rat administered 1 hr prior to carrageenan challenge measured at 50 mg/kg, po after 3 hrs of carrageenan challenge relative to vehicle-treated control
Format: organism-based
Parameters: dose 50 mg/kg, route oral
Conditions: in vivo

Row | Compound | Activity [%]
10 | O=C(O)CCc1ccc2c(c1)C(=O)c1ccccc1CO2 | 11

System: Rattus norvegicus
Assay: Antiinflammatory activity in Wistar rat assessed as inhibition of carrageenan-induced paw edema administered 1 hr prior to carrageenan challenge measured at 25 mg/kg, po after 3 hrs of carrageenan challenge relative to vehicle-treated control
Format: functional
Conditions: not given

Row | Compound | inhibition in vivo at 25 mg/kg [%]
11 | COC(=O)CCCc1ccc2c(c1)C(=O)c1ccccc1CO2 | 31.7
12 | CC(C)OC(=O)CCCc1ccc2c(c1)C(=O)c1ccccc1CO2 | 43.7
